Source: patent US6441049B2, “Method of treating neurodegenerative disorders via inhibition of amyloid beta peptide binding” (Ortho-McNeil Pharmaceutical, Inc., priority 1998, dated 2002)
Where two headings read alike, the source gives them in different places. Bridge positions count the residues as written; N and C are the ends.

How the values were obtained:
Aβ aggregation [1] = target: T1, Aβ aggregation (Homo sapiens, UniProt P05067); assay: Aβ aggregation assay on Synthaloid plates with labelled Aβ1-40; format: biochemical; settings: for % Inh Agg. (conc μM) / inhibition at 10 µM: 10 μM; for inhibition at 10 µM: read-out: % Inh Agg. (conc μM)
T1 construct: 100 nM of fluo-Aβ1-40 in 100 μl of each well of the 96-well Synthaloid plate; purchased Amersham Pharmacia Biotech (125I-Aβ1-40); Advanced Bioconcepts (fluo-Aβ1-40)
Description: Aβs are known to form aggregates leading to the formation of amyloid plaques that are characteristic of Alzheimer's disease. […] We have validated this aggregation assay using both ^125I-Aβ1-40 and fluo-Aβ1-40 in a buffer containing 50 mM HEPES, pH 7.4, 0.1% BSA, 10% FCS and protease inhibitors. About 500 pM of ^125I-Aβ1-40 or 100 nM of fluo-Aβ1-40 in 100 μl of each well of the 96-well Synthaloid plate was allowed to incubate for 2.5 hr at room temperature in the presence or absence of inhibitors. At the end of the incubation, unbound protein in the wells was removed by three washes using the above buffer. The amount of bound protein which represented Aβ aggregation was measured either by scintillation counting or fluorescence measurements.

[2] = test system: acetylcholine release from guinea pig hippocampus synaptosomes; assay: K+-evoked 3H-acetylcholine release from synaptosomes, effect of Aβs; format: cell-based; settings: for IC50: read-out: ACh Release (IC50)
Description: Synaptosomes from guinea pig hippocampus were incubated with 0.1 μM ^3H-choline and then subjected to repeated washes to remove unincorporated ^3H-choline. The synaptosomes were treated with 65 mM K^+ for 30 seconds to elicit 3H-acetylcholine release.

[3] = target: 206-216 stretch of the human α7 nAChR (Homo sapiens, UniProt P36544); settings: for % α7 nAChR 206-216 Binding: inhibitors 1 uM to 10 uM
Description: A 2-5 ug quantity of the 11 amino acid peptide comprised of the 206-216 stretch of the α7 nAChR (N-Ac, C(O)NH2) are added to a 96-well microtiter plate in 50 mL 10 mM HEPES, pH 7.4, or any buffer 50 ul. ^125I-β-amyloid1-40 (2000 Ci/mmol, 50 pM) was added to the wells in the presence and absence of inhibitors (1 uM to 10 uM) dissolved in 1 uL of 30% or 100% DMSO. Unbound ligands were removed and bound radioactivity was measured using a Microbeta liquid scintillation counter.

[4] = target: T2, alpha-7 nAChRs (Homo sapiens); assay: 125I-Aβ1-40 binding to alpha-7 nAChRs (SK-N-MC cell membranes) on wheat germ agglutinin SPA beads; settings: read-out: IC50, inhibition of 125I-Aβ1-40 binding to SK-N-MC cells
T2 construct: alpha-7 nAChR contained SK-N-MC cell membranes were immobilized; endogenous in cells; host or cells: SK-N-MC cell membranes
Description: Alpha-7 nAChRs were immobilized on wheat germ agglutinin coupled yittrium SPA beads and allowed to incubate with ^125I-Aβ1-40 in the presence of various concentrations of cold Aβ1-40 or Aβ1-42.

Aβ aggregation [5] = target: T1, Aβ aggregation; assay: Aβ aggregation assay on Synthaloid plates with labelled Aβ1-40; format: biochemical
[6] = test system: Aβ1-42 mediated inhibition of ACh release in rat cortical synaptosomes; assay: Amelioration of the Aβ1-42 mediated inhibition of ACh release in rat cortical synaptosomes; format: cell-based
[7] = target: α7 subtype nAChR homomers (Homo sapiens, UniProt P36544); settings: cited from earlier work
α7 subtype nAChR homomers, sequence (P36544 23-502): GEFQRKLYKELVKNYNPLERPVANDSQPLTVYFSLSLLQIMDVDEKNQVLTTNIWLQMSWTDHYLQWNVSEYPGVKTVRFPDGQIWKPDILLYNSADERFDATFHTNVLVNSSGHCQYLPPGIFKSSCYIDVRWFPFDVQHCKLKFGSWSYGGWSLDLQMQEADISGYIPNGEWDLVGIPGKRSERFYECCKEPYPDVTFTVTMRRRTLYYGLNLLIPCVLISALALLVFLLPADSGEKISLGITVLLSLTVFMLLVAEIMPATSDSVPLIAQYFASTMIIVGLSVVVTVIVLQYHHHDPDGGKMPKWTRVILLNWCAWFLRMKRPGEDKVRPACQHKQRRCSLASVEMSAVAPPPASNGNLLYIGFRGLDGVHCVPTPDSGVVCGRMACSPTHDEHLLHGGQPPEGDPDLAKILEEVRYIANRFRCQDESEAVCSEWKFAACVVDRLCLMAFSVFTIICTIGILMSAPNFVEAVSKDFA

T1 sequence (P05067 672-711 limits assumed): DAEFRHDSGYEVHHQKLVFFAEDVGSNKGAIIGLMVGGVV
T2 sequence (P05067 672-711): as the sequence (P05067 672-711 limits assumed) above

5,8-bis(Diphenylphosphinoyl)-3-methyl-1,2,3,4-tetrahydronaphthalene [Compound 59]
% Inh Agg. (conc μM) (Aβ aggregation [1]): <30 (10) %
% ACh Release at 10 μM [2]: 25%
% α7 nAChR 206-216 Binding ([3]; […]): 72%

CCCN(CCC)[C@@H]1Cc2c(O)ccc(O)c2C[C@H]1C (racemic) [Compound 9, 5,8-Dihydroxy-trans-2-di(N-propylamino)-3-methyl-1,2,3,4-tetrahydronaphthalene]
IC50 [4]: 0.3 nM
inhibition at 10 µM (Aβ aggregation [1]): > 90%
IC50 (Aβ aggregation [1]; Synthaloid plate, 2.5 hr, room temperature, read-out: IC50, inhibition of Aβ aggregation): 10 nM
Effect on acetylcholine release of Aβ after pretreatment with compound ([2]; 10 nM compound and 100 pM of either Aβ1-40 and Aβ1-42 prior to K+ stimulation): no effect on acetylcholine release
% ACh Release at 10 μM [2]: 94%
IC50 ([2]; Cavia porcellus): 100 nM
Inhibition of ligand binding to the 206-216 peptide [3]: inhibited
% α7 nAChR 206-216 Binding ([3]; […]): 94%
Effect of prolonged incubation on amyloid aggregates (time course) (Aβ aggregation [5]): resulted in disaggregation

CCCN(Cc1ccccc1)C1Cc2c(O)ccc(O)c2CC1C (racemic) [Compound 26]
% Inh Agg. (conc μM) (Aβ aggregation [1]): <30 (10) %
% α7 nAChR 206-216 Binding ([3]; 125I-β-amyloid1-40 50 pM): 64%

CCCN(CCCSC)C1Cc2c(O)ccc(O)c2CC1C (racemic) [Compound 28]
% Inh Agg. (conc μM) (Aβ aggregation [1]): 50-90 (10) %
% α7 nAChR 206-216 Binding ([3]; 125I-β-amyloid1-40 50 pM): 34%

CCCN(Cc1ccc(C)cc1)C1Cc2c(OC)ccc(OC)c2CC1C (racemic) [Compound 41]
% Inh Agg. (conc μM) (Aβ aggregation [1]): <30(10) %
% ACh Release at 10 μM [2]: 14%
% α7 nAChR 206-216 Binding ([3]; 125I-β-amyloid1-40 50 pM): 19%

CCCN(CCC)C1Cc2c(O)ccc(OCC=C(C)C)c2CC1C (racemic) [Compound 43]
% Inh Agg. (conc μM) (Aβ aggregation [1]): 50-90 (10) %
% ACh Release at 10 μM [2]: 0%
% α7 nAChR 206-216 Binding ([3]; 125I-β-amyloid1-40 50 pM): 10%

CCCN(CCC)C1Cc2c(OCC=C(C)C)ccc(O)c2CC1C (racemic) [Compound 44]
% Inh Agg. (conc μM) (Aβ aggregation [1]): 50-90 (10) %
% ACh Release at 10 μM [2]: 0%
% α7 nAChR 206-216 Binding ([3]; 125I-β-amyloid1-40 50 pM): 23%

COc1ccc(OC)c2c1C[C@H](C)[C@H](Nc1ccc(OCCN3CCCCC3)cc1)C2 (relative stereo) [Compound 60, 5,8-Dimethoxy-cis-2-[N-(4-(2-(1-piperidinyl)ethoxy)phenyl)]amino-3-methyl-1,2,3,4-tetrahydronaphthalene]
% Inh Agg. (result in words) (Aβ aggregation [1]; concentration not given): very active
% ACh Release at 10 μM [2]: 24%
% α7 nAChR 206-216 Binding ([3]; 125I-β-amyloid1-40 50 pM): 0%

CCCN(CCC)C1Cc2c(O)ccc(O)c2CC1C (centres unmarked) [Compound 15]
inhibition at 10 µM (Aβ aggregation [1]): 50 to 90%
IC50 [2]: 250 nM
% α7 nAChR 206-216 Binding ([3]; […]): 85%

CCCN(CCC)C1Cc2c(O)ccc(O)c2CC1C (centres unmarked) [Compound 16]
% Inh Agg. (conc μM) (Aβ aggregation [1]): 50-90 (10) %
IC50 [2]: 10000 nM
% α7 nAChR 206-216 Binding ([3]; […]): 44%

CCCN(CCC)C1Cc2c(O)ccc(OC)c2CC1C (stereo not drawn) [Compound 46, 5-Methoxy-8-hydroxy-trans-2-di(N-propylamino)-3-methyl-1,2,3,4-tetrahydronaphthalene]
inhibition at 10 µM (Aβ aggregation [1]): 50 to 90%
% ACh Release at 10 μM [2]: 0%
% α7 nAChR 206-216 Binding ([3]; […]): 18%

COC(=O)[C@H](C)NC1Cc2c(OC)ccc(OC)c2CC1C (stereo partly drawn) [Compound 48, 5,8-Dimethoxy-2-[N-(L-alanylmethyl ester)]-3-methyl-1,2,3,4-tetrahydronaphthalene]
% Inh Agg. (conc μM) (Aβ aggregation [1]): <30 (10) %
% ACh Release at 10 μM [2]: 0%
% α7 nAChR 206-216 Binding ([3]; 125I-β-amyloid1-40 50 pM): 2%

CCCN(CCC)C1Cc2c(OC(=O)C(C)(C)C)ccc(O)c2CC1C (centres unmarked) [Compound 51]
% Inh Agg. (conc μM) (Aβ aggregation [1]): 30-50 (10) %
% ACh Release at 10 μM [2]: 54%
% α7 nAChR 206-216 Binding ([3]; 125I-β-amyloid1-40 50 pM): 0%

CCCN(C)C1Cc2c(OC)ccc(OC)c2CC1C (centres unmarked) [Compound 52]
inhibition at 10 µM (Aβ aggregation [1]): 60%
% ACh Release at 10 μM [2]: 0%
% α7 nAChR 206-216 Binding ([3]; […]): 0%

CCCN(C)C1Cc2c(O)ccc(O)c2CC1C (centres unmarked) [Compound 53]
inhibition at 10 µM (Aβ aggregation [1]): 50 to 90%
% ACh Release at 10 μM [2]: 18%
% α7 nAChR 206-216 Binding ([3]; […]): 0%

CCCN(CCC(C)CCC=C(C)C)C1Cc2c(OC)ccc(OC)c2CC1C (centres unmarked) [Compound 54]
% Inh Agg. (conc μM) (Aβ aggregation [1]): 50-90 (10) %
% ACh Release at 10 μM [2]: 0%
% α7 nAChR 206-216 Binding ([3]; 125I-β-amyloid1-40 50 pM): 0%

CCCN(CCC(C)CCC=C(C)C)C1Cc2c(O)ccc(O)c2CC1C (centres unmarked) [Compound 55]
% Inh Agg. (conc μM) (Aβ aggregation [1]): 50-90 (10) %
% ACh Release at 10 μM [2]: 15%
% α7 nAChR 206-216 Binding ([3]; 125I-β-amyloid1-40 50 pM): 0%

C#CCN(CCC)C1Cc2c(O)ccc(OP(=O)(c3ccccc3)c3ccccc3)c2CC1C (centres unmarked) [Compound 56]
% Inh Agg. (conc μM) (Aβ aggregation [1]): <30 (10) %
% ACh Release at 10 μM [2]: 8%
% α7 nAChR 206-216 Binding ([3]; 125I-β-amyloid1-40 50 pM): 78%

C#CCN(CCC)C1Cc2c(OP(=O)(c3ccccc3)c3ccccc3)ccc(OP(=O)(c3ccccc3)c3ccccc3)c2CC1C (centres unmarked) [Compound 57]
% Inh Agg. (conc μM) (Aβ aggregation [1]): <30 (10) %
% ACh Release at 10 μM [2]: 11%
% α7 nAChR 206-216 Binding ([3]; 125I-β-amyloid1-40 50 pM): 63%

CCCN(CCC)C1Cc2c(O)ccc(OP(=O)(c3ccccc3)c3ccccc3)c2CC1C (centres unmarked) [Compound 58]
% Inh Agg. (conc μM) (Aβ aggregation [1]): <30 (10) %
% ACh Release at 10 μM [2]: 18%
% α7 nAChR 206-216 Binding ([3]; 125I-β-amyloid1-40 50 pM): 42%

Ac-GIPGKRSERFYECCK-NH2 (cysteine pairing not given here) [human alpha-7 nAChR200-214, peptide stretch of the human alpha-7 nAChR]
Amelioration of the Aβ1-42 Meditated Inhibition of ACh Release in Rat Cortical Synaptosomes (%) ([6]; at 1 μM): 71% at 1 μM
Amelioration of the Aβ1-42 Meditated Inhibition of ACh Release in Rat Cortical Synaptosomes (%) ([6]; at 10 μM): 79% at 10 μM

Ac-SERFYECCKEP-NH2 [human alpha-7 nAChR206-216 Ac-SERFYECCKEP-NH2] (cysteine pairing not given here)
Amelioration of the Aβ1-42 Meditated Inhibition of ACh Release in Rat Cortical Synaptosomes (%) ([6]; at 1 μM): 77% at 1 μM
Amelioration of the Aβ1-42 Meditated Inhibition of ACh Release in Rat Cortical Synaptosomes (%) ([6]; at 10 μM): 81% at 10 μM
Inhibition of ligand binding to the 206-216 peptide [3]: inhibited

Ac-SERFYECCKEP-NH2 [human alpha-7 nAChR206-216 oxidized (cyclic) CC: Ac-SERFYECC] (disulfide 7-8 (inferred)) [206-216 peptide with oxidized (cyclic) CC]
Amelioration of the Aβ1-42 Meditated Inhibition of ACh Release in Rat Cortical Synaptosomes (%) ([6]; at 1 μM): 82% at 1 μM
Amelioration of the Aβ1-42 Meditated Inhibition of ACh Release in Rat Cortical Synaptosomes (%) ([6]; at 10 μM): 84% at 10 μM

Ac-YECC-NH2 [human alpha-7 nAChR210-213]
Amelioration of the Aβ1-42 Meditated Inhibition of ACh Release in Rat Cortical Synaptosomes (%) ([6]; at 1 μM): 59% at 1 μM
Amelioration of the Aβ1-42 Meditated Inhibition of ACh Release in Rat Cortical Synaptosomes (%) ([6]; at 10 μM): 72% at 10 μM

SERFYECCKEP [206-216 peptide without Ac and NH2 end groups]
Amelioration of the Aβ1-42 Meditated Inhibition of ACh Release in Rat Cortical Synaptosomes (%) ([6]; at 1 μM): 10% at 1 μM
Amelioration of the Aβ1-42 Meditated Inhibition of ACh Release in Rat Cortical Synaptosomes (%) ([6]; at 10 μM): 22% at 10 μM

α-bungarotoxin [reference compound]
Inhibition of ligand binding to the 206-216 peptide [3]: inhibited
Kd [7]: 0.65 to 1.7 nM
